Here are results for 19 compounds from US6083981A, “Sulfonamide substituted aspartic acid interleukin-1β converting enzyme inhibitors” (Warner-Lambert Company, priority 1999, dated 2000).

Data set [1] has as its target T1, ICE (Homo sapiens, UniProt P29466).
T1 sequence (P29466 120-297 limits assumed): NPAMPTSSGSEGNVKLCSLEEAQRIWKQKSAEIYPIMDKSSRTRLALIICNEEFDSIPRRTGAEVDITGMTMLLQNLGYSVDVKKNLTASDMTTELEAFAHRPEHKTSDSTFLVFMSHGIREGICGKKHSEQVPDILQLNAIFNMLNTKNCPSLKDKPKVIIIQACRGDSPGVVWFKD
T1 sequence (P29466 317-404 limits assumed): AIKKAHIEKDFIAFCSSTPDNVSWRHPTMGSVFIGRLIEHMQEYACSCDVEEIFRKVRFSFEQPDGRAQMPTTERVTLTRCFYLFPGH
Nature of the data set: ICE inhibition, fluorometric Ki (Ac-Tyr-Val-Ala-Asp-AMC substrate). In kind it is biochemical. As to conditions: 0.24 nM ICE, 15 μM Ac-Tyr-Val-Ala-Asp-AMC, reversible competitive model. The procedure: Substrate hydrolysis is monitored for 300 seconds by observing the fluorescence of released AMC using excitation at 380 nm and emission at 460 nm. Mean rates of substrate hydrolysis are evaluated by linear-regression analysis of the fluorescence vs time traces.

Data set [2] has as its target T1, ICE. Nature of the data set: ICE Colorimetric Dose-Response (IC50) Assay. To be noted: 24 nM ICE, 60 min preincubation, 50 μM Ac-Tyr-Val-Ala-Asp-pNA, pH 7.5, 25° C. Format: biochemical. The protocol: Aliquots of each dilution are transferred to a microtitre plate in triplicate.
(§1) ICE enzyme is diluted to approximately 24 nM in HGE buffer (100 mM Hepes pH 7.5, 0.5 mM EDTA, 20% glycerol, 0.1% Bovine Serum Albumin (BSA), and activated by adding dithiothreitol (DTT) to a final concentration of 5 mM. The activated enzyme is then aliquoted into wells containing inhibitor or vehicle, and the plate is preincubated for 60 minutes at ambient temperature. Substrate (Ac--Tyr--Val--Ala--Asp--pNA) is added to each well to a final concentration of 50 μM, and plates are placed in the microtitre plate-reader thermostated to 25° C. Beginning 5 minutes after addition of substrate, absorbance (405 nm) of wells is monitored for 1 hour, and activity is calculated as the mean rate of change in absorbance during this interval.

The test system of data set [3] is IL-1β production in human peripheral blood mononuclear cells (PBMCs). Nature of the data set: PBMC Cellular Assay, inhibition of LPS-stimulated IL-1β production. In kind it is cell-based. As to conditions: PBMC; mature IL-1β by ELISA, 10 ng/mL LPS overnight, 2% human AB serum. The text has this: (§2) Further evidence that compounds of Formula I, II, and III are inhibitors of ICE is provided by their ability to inhibit IL-1β production in human peripheral blood mononuclear cells (PBMCs) as described herein. PBMCs are isolated from heparinized blood by centrifugation over a ficoll cushion, then washed three times with phosphate-buffered saline. PBMCs are suspended in a medium containing RPMI 1640 with glutamine, penicillin, streptomycin, and 2% human AB serum, then plated at 10^6 cells per well in 96 well flat bottom plates. PBMCs are stimulated overnight with 10 ng/mL of lipopolysaccharide (LPS, E. Coli strain 0111:B4; Calbiochem) in the presence or absence of a compound of Formula I. Medium is harvested and the level of mature IL-1β was determined using an ELISA kit from R & D Systems. Compound inhibition is assessed by determining the concentration of agent which reduces IL-1β levels by 50%. Cells were cultured for an additional four hours in the presence of 3-(4,5-dimethylthiazol-2-yl)-2,5-diphenyltetrazolium bromide (MTT) to determine viability. Compound toxicity can, therefore, be assessed by determining the concentration of agent which kills 50% of the cells (IC50).

The nature of data set [4]: PBMC viability (MTT), compound toxicity. In kind it is cell-based. To be noted: human, MTT viability, additional four hours, concentration which kills 50% of the cells, read-out: PBMC TC50.
Source text: as §2

Data set [5] addresses T2, Ich-2 (Caspase-4) (Homo sapiens, UniProt P49662).
T2 sequence (P49662 81-270 limits assumed): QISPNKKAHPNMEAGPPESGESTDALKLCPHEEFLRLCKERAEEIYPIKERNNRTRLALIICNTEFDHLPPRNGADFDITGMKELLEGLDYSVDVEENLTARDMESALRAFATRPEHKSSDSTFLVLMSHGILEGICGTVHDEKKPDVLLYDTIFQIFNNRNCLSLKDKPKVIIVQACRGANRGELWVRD
T2 sequence (P49662 290-377 limits assumed): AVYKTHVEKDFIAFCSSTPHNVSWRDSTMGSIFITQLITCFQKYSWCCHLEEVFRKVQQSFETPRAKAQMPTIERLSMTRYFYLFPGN
Nature of the data set: Ich-2 (Caspase-4) Colorimetric Dose-Response (IC50) Assay. As to conditions: 64 nM enzyme, 60 μM Ac-Leu-Glu-Val-Asp-pNA. In kind it is biochemical. The protocol: as §1
Inhibition of Ich-2 enzyme is assayed as described above for ICE, except that enzyme is used at 64 nM, and 60 μM of the Ich-2-specific substrate Ac--Leu--Glu--Val--Asp--pNA is used instead of the ICE substrate Ac--Tyr--Val--Ala--Asp--pNA.

Molecules are shown by their SMILES. pIC50, pKi: −log10 of the molar value.

Take `O=CC(CC(=O)O)NS(=O)(=O)c1ccccc1OC1CCCCC1` (centres unmarked) [Example 14, 3-(2-Cyclohexyloxy-Benzenesulfonylamino)-4-Oxo-Butyric Acid]: the pKi in data set [1] is 5.64. Besides, the pIC50 was 4.70 in data set [2], 4.05 in data set [3] and 4.46 in data set [5]. In data set [4], the CC50 is over 100 µM.

`O=CC(CC(=O)O)NS(=O)(=O)c1ccccc1Oc1ccc2ccccc2c1Cl` (centres unmarked) [Example 15, 3-[2-(1-Chloro-Naphthalen-2-Yloxy)-Benzenesulfonylamino]-4-Oxo-Butyric Acid]: the pKi in data set [1] was 6.00. The pIC50 is 5.29 in data set [2], 4.30 in data set [3] and 4.66 in data set [5]. In addition, the CC50 in data set [4] is over 100 µM.

Regarding `O=CC(CC(=O)O)NS(=O)(=O)c1ccccc1Oc1ccc2c(c1)CCCC2` (centres unmarked) [Example 16, 4-Oxo-3-[2-(5,6,7,8-Tetrahydro-Naphthalen-2-Yloxy)-Benzenesulfonylamino]-Butyric Acid], the pKi in data set [1] was 5.89. Moreover, the pIC50 in data set [2] is 5.24; in data set [3], 4.19; in data set [5] it was 4.38. For the same compound, the CC50 in data set [4] was over 100 µM.

Compound `O=CC(CC(=O)O)NS(=O)(=O)c1ccccc1OCCc1ccccc1` (centres unmarked) [Example 17, 4-Oxo-3-(2-Phenethyloxy-Benzenesulfonylamino)-Butyric Acid] showed a pKi in data set [1] of 6.05. Further, the pIC50 was 5.04 in data set [2], 4.26 in data set [3] and 4.20 in data set [5]. Besides, the CC50 in data set [4] was over 100 µM.

Compound `CCc1ccccc1Oc1ccccc1S(=O)(=O)NC(C=O)CC(=O)O` (centres unmarked) [Example 18, 3-[2-(2-Ethyl-Phenoxy)-Benzenesulfonylamino]-4-Oxo-Butyric Acid] had a pKi in data set [1] of 5.70. For the same compound, the figures for the pIC50 in data set [2], in data set [3] and in data set [5] were 4.85, 4.10 and 4.06, respectively. For the same compound, the CC50 in data set [4] is over 100 µM.

For the compound `CCC(C)c1ccc(Oc2ccccc2S(=O)(=O)NC(C=O)CC(=O)O)cc1` (centres unmarked) [Example 19, 3-[2-(4-Sec-Butyl-Phenoxy)-Benzenesulfonylamino]-4-Oxo-Butyric Acid], the pKi in data set [1] is 6.30. Also, the pIC50 was 5.66 in data set [2], 4.64 in data set [3] and 5.40 in data set [5]. Besides, in data set [4], the CC50 is over 100 µM.

Consider `O=CC(CC(=O)O)NS(=O)(=O)c1ccccc1Oc1ccc(-c2ccccc2)cc1` (centres unmarked) [Example 20, 3-[2-(Biphenyl-4-Yloxy)-Benzenesulfonylamino]-4-Oxo-Butyric Acid], for which the pKi in data set [1] is 6.52. The pIC50 in data set [2] was 5.36; in data set [3], 4.40; in data set [5], 4.77. Also, the CC50 in data set [4] is over 100 µM.

In data set [1], `CCCCC(C)c1ccc(Oc2ccccc2S(=O)(=O)NC(C=O)CC(=O)O)cc1` (centres unmarked) [Example 21, 3-{2-[4-(1-Methyl-Pentyl)-Phenoxy]-Benzenesulfonylamino}-4-Oxo-Butyric Acid] had a pKi of 6.22. For the same compound, the pIC50 in data set [2] was 5.21; in data set [3], 4.48; in data set [5] it was 4.51. The CC50 in data set [4] came out at 70 µM.

Take `O=CC(CC(=O)O)NS(=O)(=O)c1ccccc1OCc1ccccc1` (centres unmarked) [Example 23, 3-(2-Benzyloxy-Benzenesulfonylamino)-4-Oxo-Butyric Acid]: the pKi in data set [1] is 6.10. Also, the pIC50 in data set [2] is 4.96; in data set [3], 4.22; in data set [5], 4.01. The CC50 in data set [4] is over 100 µM.

For the compound `Cc1cccc(Oc2ccccc2S(=O)(=O)NC(C=O)CC(=O)O)c1C` (centres unmarked) [Example 24, 3-[2-(2,3-Dimethyl-Phenoxy)-Benzenesulfonylamino]-4-Oxo-Butyric Acid], in data set [1], the pKi was 6.00. Besides, the pIC50 in data set [2] was 4.89; in data set [3] it was 4.14; in data set [5], 3.91. The CC50 in data set [4] was over 100 µM.

In the case of `CCC(C)c1ccc(Oc2ccccc2S(=O)(=O)NC(C=O)CC(=O)O)cc1C` (centres unmarked) [Example 28, 3-[2-(4-Sec-Butyl-3-Methyl-Phenoxy)-Benzenesulfonylamino]-4-Oxo-Butyric Acid], the pKi in data set [1] was 7.00. Further, the pIC50 in data set [2] is 6.00; in data set [3], 4.74; in data set [5], 5.34. Besides, in data set [4], the CC50 is over 100 µM.

Turning to `CCC(CC)COc1ccccc1S(=O)(=O)NC(C=O)CC(=O)O` (centres unmarked) [Example 29], in data set [1], the pKi is 6.52. The figures for the pIC50 in data set [2], in data set [3] and in data set [5] were 5.07, 4.12 and 3.67, respectively. In data set [4], the CC50 is over 100 µM.

Compound `O=CC(CC(=O)O)NS(=O)(=O)c1ccccc1OCCc1cccc2ccccc12` (centres unmarked) [Example 31] had a pKi in data set [1] of 7.21. The values for the pIC50 in data set [2], in data set [3] and in data set [5] were 6.40, 5.10 and 5.64, respectively. Further, in data set [4], the CC50 is over 100 µM.

In the case of `Cc1cccc(-c2ccccc2S(=O)(=O)NC(C=O)CC(=O)O)c1` (centres unmarked) [Example 35, 3-(3'-Methyl-Biphenyl-2-Sulfonylamino)-4-Oxo-Butyric Acid], the pKi in data set [1] was 4.51. The pIC50 is 4.43 in data set [2], under 4.00 in data set [3] and 3.47 in data set [5]. Moreover, the CC50 in data set [4] was over 100 µM.

Regarding `O=CC(CC(=O)O)NS(=O)(=O)c1ccccc1Oc1ccc2ccccc2c1` (centres unmarked) [Example 36, 3-[2-(Naphthalen-2-Yloxy)-Benzenesulfonylamino]-4-Oxo-Butyric Acid], the pKi in data set [1] is 6.89. Also, the figures for the pIC50 in data set [2], in data set [3] and in data set [5] were 5.46, 4.30 and 4.55, respectively. Moreover, the CC50 in data set [4] was over 100 µM.

With `Cc1cccc(S(=O)(=O)NC(C=O)CC(=O)O)c1-c1ccccc1` (centres unmarked) [Example 37, 3-(6-Methyl-Biphenyl-2-Sulfonylamino)-4-Oxo-Butyric Acid], in data set [1], the pKi is 5.72. Also, the values for the pIC50 in data set [2], in data set [3] and in data set [5] were 4.47, under 4.00 and 3.82, respectively. For the same compound, the CC50 in data set [4] is over 100 µM.

Regarding `Cc1cccc(S(=O)(=O)NC(C=O)CC(=O)O)c1Oc1ccccc1` (centres unmarked) [Example 38, 3-(3-Methyl-2-Phenoxy-Benzenesulfonylamino)-4-Oxo-Butyric Acid], the pKi in data set [1] is 6.17. Moreover, the pIC50 in data set [2] is 4.95; in data set [3], 4.07; in data set [5], 4.12. In addition, the CC50 in data set [4] is over 100 µM.

In data set [1], `O=CC(CC(=O)O)NS(=O)(=O)c1ccccc1Sc1ccccc1` (centres unmarked) [Example 39, 4-Oxo-3-[2-Phenylthio-Benzenesulfonylamino]-Butyric Acid] gave a pKi of 5.96. Besides, the figures for the pIC50 in data set [2], in data set [3] and in data set [5] were 4.68, under 4.00 and 4.60, respectively. Further, in data set [4], the CC50 was over 100 µM.

The compound `O=CC(CC(=O)O)NS(=O)(=O)c1ccccc1Nc1ccccc1` (centres unmarked) [Example 40, 4-Oxo-3-[2-N-Phenyl-Benzenesulfonylamino]-Butyric Acid] gave a pKi in data set [1] of 5.00. For the same compound, the pIC50 is 4.36 in data set [2], 4.02 in data set [3] and 3.43 in data set [5]. In addition, the CC50 in data set [4] was over 100 µM.
